Measurements from ChEMBL document CHEMBL1154202, “Arylcarboxyamino-substituted diaryl ureas as potent and selective FLT3 inhibitors” (Bioorg Med Chem Lett, 2009).
Activity calls are given as the source filed them. The calls are words filed in the database; no cut-off is given here.

Legend:
[1] = tested on: MV4-11; experiment: Antitumor activity against human MV411 cells assessed as inhibition of cell proliferation; type: functional, cell-based
[2] = target: T1, Receptor-type tyrosine-protein kinase FLT3 (Homo sapiens, UniProt P36888)
T1 sequence (P36888 whole entry): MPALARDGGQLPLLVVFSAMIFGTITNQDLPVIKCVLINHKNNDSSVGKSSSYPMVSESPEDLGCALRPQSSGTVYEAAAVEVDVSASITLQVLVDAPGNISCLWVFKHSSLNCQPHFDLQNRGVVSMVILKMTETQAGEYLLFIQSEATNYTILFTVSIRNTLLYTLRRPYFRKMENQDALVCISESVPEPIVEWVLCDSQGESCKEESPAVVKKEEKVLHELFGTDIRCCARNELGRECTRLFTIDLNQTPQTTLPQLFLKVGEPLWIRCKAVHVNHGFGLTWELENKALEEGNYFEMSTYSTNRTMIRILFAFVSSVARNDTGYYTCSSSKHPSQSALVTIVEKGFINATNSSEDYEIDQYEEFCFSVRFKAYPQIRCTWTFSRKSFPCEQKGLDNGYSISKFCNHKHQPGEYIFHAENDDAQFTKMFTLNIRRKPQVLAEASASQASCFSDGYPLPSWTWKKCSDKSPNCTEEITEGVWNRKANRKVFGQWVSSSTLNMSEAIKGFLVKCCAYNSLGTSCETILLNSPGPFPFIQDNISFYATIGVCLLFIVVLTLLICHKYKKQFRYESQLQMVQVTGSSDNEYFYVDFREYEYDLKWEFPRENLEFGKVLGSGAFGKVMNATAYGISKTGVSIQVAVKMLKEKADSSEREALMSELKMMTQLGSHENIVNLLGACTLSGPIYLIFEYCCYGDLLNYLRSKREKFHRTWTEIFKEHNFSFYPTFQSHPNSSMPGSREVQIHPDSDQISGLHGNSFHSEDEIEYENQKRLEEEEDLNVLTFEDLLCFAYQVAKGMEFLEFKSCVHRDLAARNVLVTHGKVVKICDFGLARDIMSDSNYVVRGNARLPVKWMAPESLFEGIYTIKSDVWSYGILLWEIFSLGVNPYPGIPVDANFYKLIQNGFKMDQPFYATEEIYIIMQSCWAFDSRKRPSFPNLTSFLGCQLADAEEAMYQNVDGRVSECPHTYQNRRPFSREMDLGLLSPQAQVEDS

[3] = Cmax in nude mouse at 10 mg/kg, po; type: ADME, organism-based; set-up: dose 10 mg/kg, route oral; details: in vivo
[4] = tested on: MV4-11; experiment: Antitumor activity against human MV411 cells in xenografted athymic nude mouse model assessed as decrease in tumor size at 10 mg/kg, po qd for 28 days measured after 36 to 56 days; type: functional, organism-based; set-up: dose 10 mg/kg
[5] = target: Mast/stem cell growth factor receptor Kit (Homo sapiens, UniProt P10721); experiment: Binding affinity to KIT
[6] = target: Proto-oncogene tyrosine-protein kinase receptor Ret (Homo sapiens, UniProt P07949); experiment: Binding affinity to RET
[7] = target: Platelet-derived growth factor receptor beta (Homo sapiens, UniProt P09619); experiment: Binding affinity to PDGFRbeta
[8] = tested on: Mus musculus; experiment: AUC in nude mouse at 10 mg/kg, po; type: ADME, organism-based, Plasma; set-up: dose 10 mg/kg, route oral; details: in vivo
[9] = target: Macrophage colony-stimulating factor 1 receptor (Homo sapiens, UniProt P07333); experiment: Binding affinity to CSF1R
[10] = tested on: MV4-11; experiment: Antitumor activity against human MV411 cells in xenografted athymic nude mouse model assessed as decrease in tumor size at 10 mg/kg, po qd for 28 days measured after 29 to 36 days; type: functional
[11] = tested on: Mus musculus; experiment: Toxicity in human MV411 cells in xenografted athymic nude mouse model assessed as change in body weight at 10 mg/kg, po qd for 28 days; type: organism-based, MV4-11; set-up: dose 10 mg/kg, route oral; details: in vivo, 672 h
[12] = target: Vascular endothelial growth factor receptor 2 (Homo sapiens, UniProt P35968); experiment: Binding affinity to VEGFR2
[13] = Half life in nude mouse at 10 mg/kg, po; type: ADME, organism-based; set-up: dose 10 mg/kg, route oral; details: in vivo
[14] = tested on: MV4-11; experiment: Antitumor activity against human MV411 cells in xenografted athymic nude mouse model assessed as decrease in tumor size at 10 mg/kg, po qd for 28 days; type: functional, organism-based; set-up: dose 10 mg/kg
[15] = tested on: MV4-11; experiment: Antitumor activity against human MV411 cells in xenografted athymic nude mouse model assessed as decrease in tumor size at 30 mg/kg, po qd for 28 days; type: functional, organism-based; set-up: dose 30 mg/kg

Sequence of Platelet-derived growth factor receptor beta (P09619 whole entry): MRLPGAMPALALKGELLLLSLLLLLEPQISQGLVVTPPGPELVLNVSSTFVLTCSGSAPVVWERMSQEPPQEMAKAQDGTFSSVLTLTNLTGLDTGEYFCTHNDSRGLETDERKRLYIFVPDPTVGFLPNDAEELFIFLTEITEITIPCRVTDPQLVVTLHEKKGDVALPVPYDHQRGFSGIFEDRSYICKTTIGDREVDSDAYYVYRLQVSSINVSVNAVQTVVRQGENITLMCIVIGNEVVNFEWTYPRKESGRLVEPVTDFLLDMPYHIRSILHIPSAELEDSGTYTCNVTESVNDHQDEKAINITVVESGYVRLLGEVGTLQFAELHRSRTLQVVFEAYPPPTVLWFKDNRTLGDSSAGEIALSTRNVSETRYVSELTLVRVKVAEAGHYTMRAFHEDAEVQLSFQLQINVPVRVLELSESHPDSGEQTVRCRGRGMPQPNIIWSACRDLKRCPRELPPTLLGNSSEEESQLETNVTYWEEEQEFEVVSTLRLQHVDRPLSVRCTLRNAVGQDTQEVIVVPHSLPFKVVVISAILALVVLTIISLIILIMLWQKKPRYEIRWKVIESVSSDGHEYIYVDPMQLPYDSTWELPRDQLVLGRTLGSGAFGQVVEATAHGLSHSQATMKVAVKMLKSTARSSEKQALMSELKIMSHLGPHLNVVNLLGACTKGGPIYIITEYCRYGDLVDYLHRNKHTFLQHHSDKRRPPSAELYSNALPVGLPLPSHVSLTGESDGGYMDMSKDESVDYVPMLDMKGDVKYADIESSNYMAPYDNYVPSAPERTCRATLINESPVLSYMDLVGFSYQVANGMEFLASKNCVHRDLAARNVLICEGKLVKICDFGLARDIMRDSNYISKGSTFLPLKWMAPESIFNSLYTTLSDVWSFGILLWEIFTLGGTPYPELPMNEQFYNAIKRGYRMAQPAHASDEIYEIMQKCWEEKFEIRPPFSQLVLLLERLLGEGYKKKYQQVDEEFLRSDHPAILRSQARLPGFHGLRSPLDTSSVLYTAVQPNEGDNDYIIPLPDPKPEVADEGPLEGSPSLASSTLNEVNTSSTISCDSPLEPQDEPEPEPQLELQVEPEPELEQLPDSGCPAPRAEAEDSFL
Sequence of Mast/stem cell growth factor receptor Kit (P10721 whole entry): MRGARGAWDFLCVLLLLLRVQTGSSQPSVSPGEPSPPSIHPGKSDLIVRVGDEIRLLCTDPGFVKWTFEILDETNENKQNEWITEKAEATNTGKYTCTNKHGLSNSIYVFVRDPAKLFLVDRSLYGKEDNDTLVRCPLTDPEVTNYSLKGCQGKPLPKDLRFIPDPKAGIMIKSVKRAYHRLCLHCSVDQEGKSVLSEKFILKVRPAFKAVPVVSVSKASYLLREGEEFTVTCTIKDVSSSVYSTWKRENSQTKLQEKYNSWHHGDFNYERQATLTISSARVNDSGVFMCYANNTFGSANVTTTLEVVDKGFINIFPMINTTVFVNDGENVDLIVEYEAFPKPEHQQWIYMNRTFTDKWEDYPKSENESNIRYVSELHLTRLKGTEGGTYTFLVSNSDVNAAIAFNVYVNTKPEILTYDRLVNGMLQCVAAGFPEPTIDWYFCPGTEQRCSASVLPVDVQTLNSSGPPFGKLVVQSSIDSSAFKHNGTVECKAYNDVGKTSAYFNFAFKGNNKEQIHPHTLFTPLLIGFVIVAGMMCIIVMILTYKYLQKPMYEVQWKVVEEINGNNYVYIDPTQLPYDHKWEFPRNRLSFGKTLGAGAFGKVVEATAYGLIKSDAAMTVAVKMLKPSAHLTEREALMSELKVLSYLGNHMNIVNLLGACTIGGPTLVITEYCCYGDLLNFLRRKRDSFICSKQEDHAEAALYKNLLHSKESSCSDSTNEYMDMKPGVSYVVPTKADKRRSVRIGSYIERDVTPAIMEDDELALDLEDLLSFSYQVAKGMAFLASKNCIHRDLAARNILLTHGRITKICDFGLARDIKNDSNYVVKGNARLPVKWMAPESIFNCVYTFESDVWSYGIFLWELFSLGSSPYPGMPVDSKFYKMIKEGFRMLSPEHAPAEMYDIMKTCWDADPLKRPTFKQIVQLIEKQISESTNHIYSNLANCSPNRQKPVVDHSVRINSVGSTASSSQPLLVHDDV
Sequence of Proto-oncogene tyrosine-protein kinase receptor Ret (P07949 whole entry): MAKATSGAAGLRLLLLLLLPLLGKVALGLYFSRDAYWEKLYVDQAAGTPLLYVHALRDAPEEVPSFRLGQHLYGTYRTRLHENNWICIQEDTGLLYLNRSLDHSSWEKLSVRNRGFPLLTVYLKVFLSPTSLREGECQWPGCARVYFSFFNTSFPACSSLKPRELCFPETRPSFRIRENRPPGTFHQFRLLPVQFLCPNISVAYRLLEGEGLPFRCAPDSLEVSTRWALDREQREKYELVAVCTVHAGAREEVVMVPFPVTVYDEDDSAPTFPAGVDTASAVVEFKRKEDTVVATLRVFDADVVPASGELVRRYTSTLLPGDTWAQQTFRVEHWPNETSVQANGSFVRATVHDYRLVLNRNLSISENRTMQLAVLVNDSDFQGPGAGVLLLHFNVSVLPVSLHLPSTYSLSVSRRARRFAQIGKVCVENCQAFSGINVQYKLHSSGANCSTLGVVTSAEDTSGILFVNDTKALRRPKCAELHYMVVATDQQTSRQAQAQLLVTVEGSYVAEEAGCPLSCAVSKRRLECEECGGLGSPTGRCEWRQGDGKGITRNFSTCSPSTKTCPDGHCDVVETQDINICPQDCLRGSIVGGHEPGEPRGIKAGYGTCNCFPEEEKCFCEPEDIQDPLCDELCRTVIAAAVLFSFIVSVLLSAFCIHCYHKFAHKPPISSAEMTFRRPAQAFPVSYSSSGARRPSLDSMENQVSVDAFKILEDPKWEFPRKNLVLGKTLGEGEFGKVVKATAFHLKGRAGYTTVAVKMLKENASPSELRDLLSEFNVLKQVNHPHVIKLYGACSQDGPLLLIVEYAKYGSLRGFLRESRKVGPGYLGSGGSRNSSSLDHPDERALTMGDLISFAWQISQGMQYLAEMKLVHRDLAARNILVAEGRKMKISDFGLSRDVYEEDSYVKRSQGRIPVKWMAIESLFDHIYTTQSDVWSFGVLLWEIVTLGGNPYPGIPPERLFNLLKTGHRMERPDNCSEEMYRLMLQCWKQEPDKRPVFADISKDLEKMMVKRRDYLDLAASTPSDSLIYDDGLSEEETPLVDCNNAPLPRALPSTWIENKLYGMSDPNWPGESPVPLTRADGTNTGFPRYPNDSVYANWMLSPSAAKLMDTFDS
Sequence of Macrophage colony-stimulating factor 1 receptor (P07333 whole entry): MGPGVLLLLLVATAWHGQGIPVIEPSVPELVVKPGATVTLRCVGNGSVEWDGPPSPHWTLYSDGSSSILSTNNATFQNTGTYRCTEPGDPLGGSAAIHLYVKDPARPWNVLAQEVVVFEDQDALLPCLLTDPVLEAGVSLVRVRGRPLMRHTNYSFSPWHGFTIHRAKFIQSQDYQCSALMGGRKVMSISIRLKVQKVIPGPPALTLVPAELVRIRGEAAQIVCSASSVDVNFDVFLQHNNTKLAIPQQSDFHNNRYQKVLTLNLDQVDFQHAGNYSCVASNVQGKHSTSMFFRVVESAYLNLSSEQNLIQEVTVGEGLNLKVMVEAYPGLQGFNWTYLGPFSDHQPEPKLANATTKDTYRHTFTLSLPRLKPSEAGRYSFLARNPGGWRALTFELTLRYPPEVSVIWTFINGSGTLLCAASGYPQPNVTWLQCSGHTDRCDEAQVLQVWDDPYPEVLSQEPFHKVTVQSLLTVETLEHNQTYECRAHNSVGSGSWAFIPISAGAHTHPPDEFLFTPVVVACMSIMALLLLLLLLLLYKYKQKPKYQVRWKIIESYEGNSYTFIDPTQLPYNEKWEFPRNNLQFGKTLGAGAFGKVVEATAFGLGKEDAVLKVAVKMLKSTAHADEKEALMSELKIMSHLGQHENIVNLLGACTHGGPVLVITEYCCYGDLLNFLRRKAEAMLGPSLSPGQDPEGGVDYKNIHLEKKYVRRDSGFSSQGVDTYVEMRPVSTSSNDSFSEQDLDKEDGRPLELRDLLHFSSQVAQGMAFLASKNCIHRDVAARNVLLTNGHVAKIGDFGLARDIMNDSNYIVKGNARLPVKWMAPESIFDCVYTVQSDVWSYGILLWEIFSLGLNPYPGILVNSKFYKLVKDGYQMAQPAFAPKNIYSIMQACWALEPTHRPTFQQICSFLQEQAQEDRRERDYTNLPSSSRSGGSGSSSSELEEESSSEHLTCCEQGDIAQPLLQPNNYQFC

IC50 [1] [nM]	Kd [2] [nM]	Compound	also measured
199	25	CC(C)(C)c1cc(NC(=O)Nc2ccc(C(=O)Nc3cccnc3)cc2)no1	–
1.6	0.76	CC(C)(C)c1cc(NC(=O)Nc2ccc(NC(=O)c3ccccn3)cc2)no1	–
132	10.1	CC(C)(C)c1cc(NC(=O)Nc2ccc(NC(=O)c3ccncc3)cc2)no1	–
104	8.15	CC(C)(C)c1cc(NC(=O)Nc2ccc(C(=O)Nc3ccccn3)cc2)no1	–
0.85	0.77	Cc1ccc2sc(C(=O)Nc3ccc(NC(=O)Nc4cc(C(C)(C)C)on4)cc3)cc2c1	–
46.7	2.5	CC(C)(C)c1cc(NC(=O)Nc2ccc(NC(=O)c3cccc(O)n3)cc2)no1	–

The remaining lines, values behind:

Compound	IC50 [1] [nM]	Kd [2] [nM]	also measured
CC(C)(C)c1cc(NC(=O)Nc2ccc(C(=O)Nc3ccccc3)cc2)no1	101	7.4	–
CC(C)(C)c1cc(NC(=O)Nc2ccc(NC(=O)c3ccc4ccccc4c3)cc2)no1	3.1	0.75	–
CC(C)(C)c1cc(NC(=O)Nc2ccc(NC(=O)c3ccccc3)cc2)no1	30	0.98	–
CC(C)(C)c1cc(NC(=O)Nc2ccc(NC(=O)c3cn4c(n3)sc3ccccc34)cc2)no1	0.44	1.6	Cmax [3]: 2360 nM; Activity [4]: inactive; Kd [5]: 7.5 nM; Kd [6]: 3 nM; Kd [7]: 2.2 nM; AUC [8]: 13.2 µM·h; Kd [9]: 10 nM; Activity [10]: 90 mm3; Activity [11]: < 5%; Kd [12]: > 200 nM; half-life [13]: 2.3 h; Activity [14]: Active
CC(C)(C)c1cc(NC(=O)Nc2ccc(NC(=O)c3nccc4ccccc34)cc2)no1	2.8	0.74	–
CC(C)(C)c1cc(NC(=O)Nc2ccc(NC(=O)c3cccnc3)cc2)no1	159	15	–
CC(C)(C)c1cc(NC(=O)Nc2ccc(NC(=O)Cc3ccccc3)cc2)no1	1090	510	–
CC(C)(C)c1cc(NC(=O)Nc2ccc(NC(=O)c3cc4ccccc4cn3)cc2)no1	0.29	–	Cmax [3]: 1310 nM; Activity [4]: inactive; Kd [5]: 1.8 nM; Kd [6]: 7.3 nM; Kd [7]: 7 nM; AUC [8]: 4.25 µM·h; Activity [10]: 90 mm3; Activity [11]: < 5%; Kd [12]: > 200 nM; half-life [13]: 2.2 h
CC(C)(C)c1cc(NC(=O)Nc2ccc(NC(=O)c3ncccc3O)cc2)no1	0.71	0.74	Kd [5]: 0.96 nM; Kd [6]: 4.7 nM; Kd [7]: 2.6 nM; Kd [9]: 4.4 nM
CC(C)(C)c1cc(NC(=O)Nc2ccc(NC(=O)C3CCNCC3)cc2)no1	10500	240	–
CCN(CC)CCNC(=O)c1c(C)[nH]c(/C=C2\C(=O)Nc3ccc(F)cc32)c1C	–	–	Activity [15]: Active; Activity [10]: Active
CC(C)(C)c1cc(NC(=O)Nc2ccc(C(=O)Nc3ccncc3)cc2)no1	414	38.4	–
